Data published in publication PMC9095466 (Nature, 2022).
Several values for one entry are separate records, joined by “and”; a condition that tells them apart may be missing. Equal entries are not always repeated. Where two headings read alike, the source gives them in different places.

Tests used:
[1] = test system: SARS-CoV-2 B.1.617.2 (Delta); assay: microbe, parasite or virus in culture; type: cell-based; conditions: India
SARS-CoV-2 (VIDO) = type: cell-based; set-up: plaque assay titre, Figure 2c: unit not given beside the values; conditions: for reduction of viral titre (plaque assay): supernatant of infected Calu-3 cells, vs DMSO-treated infected control; for plaque assay titre, Figure 2c: replicate columns

For `CS(=O)(=O)NC(CCC(N)=O)C(=O)NC(Cc1ccccc1)C(=O)NC(CCCNC(=N)N)C(=O)c1nc2ccccc2s1` (centres unmarked) [Compound N-0385, Ms-QFR-kbt], the “infection, dose response Figure 3c (nucleocapsid)” value (“infection, dose response Figure 3c” below) ([1]; log [C] (nM) 0.20412) was 60.9172 and 87.9076 and 85.6813 and 84.0612, the “infection, dose response Figure 3d (dsRNA)” value (“infection … (dsRNA)” below) ([1]; log [C] (nM) 0.20412) was 68.4547 and 86.2131 and 100 and the “infection … (dsRNA)” value ([1]; log [C] (nM) 3) was 5.293 and 4.1962. For the same compound, the “infection, dose response Figure 3c” value ([1]; log [C] (nM) -0.49485) was 94.4352 and 99.5627 and 82.7139, the “infection … (dsRNA)” value ([1]; log [C] (nM) -0.49485) was 78.2794 and 100 and the “infection, dose response Figure 3c” value ([1]; log [C] (nM) -1.19382) was 98.0243 and 101.283 and 99.1734 and 90.3686. For the same compound, the “infection … (dsRNA)” value ([1]; log [C] (nM) -1.19382) was 100 and 84.9713, the “reduction of viral titre (plaque assay)” value (SARS-CoV-2 (VIDO); 40 nM) was ~2 log and the “plaque assay titre, Figure 2c” value (SARS-CoV-2 (VIDO); 40 nM) was 1000 (11×) and 22000 (2×) and 33000 and 132000 and 10000 (2×) and 33333. For the same compound, the “reduction of viral titre (plaque assay)” value (SARS-CoV-2 (VIDO); 200 nM) was ~2 log and the “plaque assay titre, Figure 2c” value (SARS-CoV-2 (VIDO); 200 nM) was 1000 (8×) and 10000 (6×) and 20000 (2×) and 11111 and 40000 and 30000.
